According to patent US20150272939A1, “Identification of Small Molecule Inhibitors of Jumonji AT-Rich Interactive Domain 1A (JARID1A) and 1B (JARID1B) Histone Demethylase” (Yale University, priority 2012, published 2015):
Structures can show the parent of a compound that is named as a salt. Where two headings read alike, the source gives them in different places.

Tests used:
JARID1B = molecular target: T1, JARID1B (Homo sapiens, UniProt Q9UGL1); assay: FLAG-JARID1B histone demethylase assay with AlphaScreen detection (HTS and dose response); type: biochemical; conditions: for inhibition at 20 µM: high-throughput screen, compound 20 μM, read-out: Inhibitory effect (percent); for Validation result of HTS active: effect of the compound in the JARID1B AlphaScreen demethylase assay / Assay Signal (percent): validation of HTS actives; for Validation result of HTS active: effect of the compound in the JARID1B AlphaScreen demethylase assay: total signal before subtraction of artifact signal; for Assay − Artifact Signal (percent): assay signal minus artifact signal; for Assay Signal (percent): effect of compound in JARID1B AlphaScreen assay;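 for Assay Signal (percent): compound tested at 20 µM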;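 for Assay − Artifact Signal (percent): compound tested at 20 µM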;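 for all read-outs here: FLAG-tagged JARID1B at 4 nM acting on a biotinylated H3K4me3 peptide, demethylation read by AlphaScreen luminescence, with hits checked against bio-H3K4me2 without enzyme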
T1 construct: The FLAG tagged full length JARID1B enzyme was expressed in Sf21 insect cells using FLAG-JARID1B baculoviruses; FLAG (N); made in house; host or cells: Sf21 insect cells (baculovirus)
T1 sequence (Q9UGL1 whole entry): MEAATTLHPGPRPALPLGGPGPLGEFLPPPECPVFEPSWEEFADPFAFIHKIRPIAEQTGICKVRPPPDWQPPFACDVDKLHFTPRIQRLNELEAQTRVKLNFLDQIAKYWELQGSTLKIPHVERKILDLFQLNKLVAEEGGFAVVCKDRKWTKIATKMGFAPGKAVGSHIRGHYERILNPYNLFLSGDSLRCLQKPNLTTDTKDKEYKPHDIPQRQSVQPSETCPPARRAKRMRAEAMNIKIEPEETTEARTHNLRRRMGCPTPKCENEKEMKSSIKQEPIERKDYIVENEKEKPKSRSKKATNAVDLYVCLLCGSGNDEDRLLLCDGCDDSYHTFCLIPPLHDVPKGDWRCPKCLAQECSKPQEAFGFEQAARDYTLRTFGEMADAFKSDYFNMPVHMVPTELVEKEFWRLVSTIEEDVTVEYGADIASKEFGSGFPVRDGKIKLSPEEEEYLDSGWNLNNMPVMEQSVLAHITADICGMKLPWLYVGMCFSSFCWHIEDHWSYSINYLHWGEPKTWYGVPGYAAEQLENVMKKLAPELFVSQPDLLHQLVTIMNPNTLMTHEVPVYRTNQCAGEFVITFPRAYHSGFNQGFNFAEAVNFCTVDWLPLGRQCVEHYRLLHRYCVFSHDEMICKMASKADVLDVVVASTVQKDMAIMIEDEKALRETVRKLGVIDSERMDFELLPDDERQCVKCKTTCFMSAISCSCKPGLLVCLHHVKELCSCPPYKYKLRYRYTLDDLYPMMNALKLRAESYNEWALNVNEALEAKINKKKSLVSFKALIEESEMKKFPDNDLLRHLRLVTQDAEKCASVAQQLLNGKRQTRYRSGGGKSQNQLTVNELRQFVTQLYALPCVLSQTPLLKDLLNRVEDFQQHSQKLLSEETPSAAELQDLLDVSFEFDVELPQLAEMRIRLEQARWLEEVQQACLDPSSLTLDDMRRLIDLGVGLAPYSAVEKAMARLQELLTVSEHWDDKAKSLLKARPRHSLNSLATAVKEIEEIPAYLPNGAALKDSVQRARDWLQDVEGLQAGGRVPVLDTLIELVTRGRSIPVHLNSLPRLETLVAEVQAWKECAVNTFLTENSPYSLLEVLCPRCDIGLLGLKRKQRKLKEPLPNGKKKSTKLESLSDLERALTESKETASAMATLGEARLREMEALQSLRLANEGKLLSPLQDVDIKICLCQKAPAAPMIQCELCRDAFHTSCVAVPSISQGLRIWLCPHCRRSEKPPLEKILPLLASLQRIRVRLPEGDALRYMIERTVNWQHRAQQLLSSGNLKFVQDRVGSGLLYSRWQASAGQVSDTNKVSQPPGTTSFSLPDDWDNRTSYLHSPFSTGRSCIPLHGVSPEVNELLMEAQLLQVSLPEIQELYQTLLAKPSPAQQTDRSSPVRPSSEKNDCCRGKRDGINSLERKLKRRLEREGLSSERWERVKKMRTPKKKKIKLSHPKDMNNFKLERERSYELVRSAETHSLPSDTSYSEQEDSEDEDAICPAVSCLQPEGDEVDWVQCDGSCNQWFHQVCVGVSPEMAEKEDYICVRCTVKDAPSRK

[1] = AlphaScreen counterscreen against bio-H3K4me2 peptide in the absence of enzyme (artifact signal); conditions: for Artifact signal: effect of the compound when it is incubated with bio-H3K4me2 peptide: counterscreen, no enzyme; for Artifact Signal (percent): effect of the compound when incubated with bio-H3K4me2 peptide (counterscreen, no enzyme);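 for all read-outs here: counterscreen run without enzyme against bio-H3K4me2 peptide to remove false positive hits from the JARID1 demethylase AlphaScreen screen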
[2] = standard demethylase conditions (10 μM α-KG, 50 μM Fe (II))
[3] = IDs marked *: additional hits under reaction condition with 1 mM α-KG

| Compound | inhibition at 20 µM (JARID1B; [2]) [%] | Validation result of HTS active: effect of the compound in the JARID1B AlphaScreen demethylase assay (JARID1B) | Artifact signal: effect of the compound when it is incubated with bio-H3K4me2 peptide [1] | Assay − Artifact Signal (percent) (JARID1B) [%] | Assay Signal (percent) (JARID1B) [%] | Artifact Signal (percent) [1] [%] | inhibition at 20 µM (JARID1B; [3]) [%] |
| --- | --- | --- | --- | --- | --- | --- | --- |
| O=C(NCCOc1ccccc1)c1ccccc1 [YU146037] | 32.6 | −0.56 | −1.42 | – | – | – | – |
| O=c1c(O)c(-c2ccc(O)c(O)c2)oc2c(O[C@@H]3O[C@H](CO)[C@@H](O)[C@H](O)[C@H]3O)c(O)cc(O)c12 [YU153353, GOSSYPIN, reference compound] | – | – | – | 37.81 | 99.61 | 61.80 | – |
| COc1ccccc1OCc1nnc(S)n1C [YU146471] | 36.4 | – | – | 47.93 | 46.29 | −1.64 | – |
| COc1cc(C=C[N+](=O)[O-])ccc1OCc1cccc(C(=O)O)c1 (single isomer, unassigned) [YU153545] | 101 | – | – | 8.98 | 100.32 | 91.35 | – |
| CCOC(=O)C(CCOc1cccc(CC)c1)C(=O)OCC [YU151071] | 96.7 | – | – | 9.86 | 6.13 | −3.73 | – |
| Cc1ccc(C(C#N)=Cc2ccc(N3CCOCC3)o2)cc1 (single isomer, unassigned) [YU149607] | 43.1 | – | – | 37.94 | 40.44 | 2.50 | – |
| c1cc(CNc2ccc3c(c2)OCCO3)ccn1 [YU146041] | 48.7 | – | – | 54.24 | 55.23 | 0.99 | – |
| Oc1cc(O)c2c(c1)O[C@H](c1ccc(O)c(O)c1)[C@@H](O)C2 [YU033631, CIANIDANOL, reference compound] | – | – | – | 26.12 | 30.96 | 4.84 | 41.5 |
| COC(=O)Nc1nnc(CC2CCCC2)s1 [YU146034] | 33 | – | – | 21.12 | 18.33 | <2.79 | – |
| CC(NC(=O)c1ccco1)c1ccncc1 (stereo not shown) [YU145239] | 42.4 | 7.68 | 0.21 | – | – | – | – |
| O=C(O)c1ccnc(C(=O)O)c1 [YU221215, 2,4-Pyridinedicarboxylic Acid, reference compound] | – | – | – | 96.69 | 99.69 | 3.00 | 40.8 |
| O=C(O)c1cccc(NCc2ccncc2)c1 [YU145461] | 94.6 | – | – | 95.48 | 96.37 | 0.89 | – |
| COC(=O)c1cccc(NC(c2cccnc2)c2ccc3cccnc3c2O)c1 (stereo not shown) [YU172172] | 60.1 | 63.48 | 56.78 | – | – | – | – |
| Cc1cccc(NC(c2cccnc2)c2ccc3cccnc3c2O)c1 (stereo not shown) [YU172169] | 72.7 | – | – | 11.78 | 73.22 | 61.44 | – |
| NCCc1cc(O)c(O)cc1O [YU033940, OXIDOPAMINE HYDROCHLORIDE, reference compound] | 41 | – | – | 19.88 | 36.84 | 16.96 | – |
| Cc1[nH]c2nc(C(F)(F)F)nn2c(=O)c1C [YU172199] | 62.4 | – | – | 42.72 | 38.73 | −4.00 | – |

| Compound | inhibition at 20 µM (JARID1B; [2]) [%] | Validation result of HTS active: effect of the compound in the JARID1B AlphaScreen demethylase assay (JARID1B) | Artifact signal: effect of the compound when it is incubated with bio-H3K4me2 peptide [1] | Assay − Artifact Signal (percent) (JARID1B) [%] | Assay Signal (percent) (JARID1B) [%] | Artifact Signal (percent) [1] [%] | inhibition at 20 µM (JARID1B; [3]) [%] |
| --- | --- | --- | --- | --- | --- | --- | --- |
| O=c1c(O)c(-c2cc(O)c(O)c(O)c2)oc2cc(O)cc(O)c12 [YU155300, MYRICETIN, reference compound] | 72.1 | 74.84 | 69.07 | – | – | – | – |
| CC(O)Cc1nnc(S)n1-c1ccccc1 (stereo not shown) [YU145796] | 34.8 | – | – | 40.83 | 33.04 | −7.79 | – |
| Fc1cccc(Cl)c1CNn1cnnc1S [YU146768] | 34 | – | – | 49.49 | 48.97 | −0.52 | – |
| Oc1c(C(Nc2ccccc2Cl)c2cccnc2)ccc2cccnc12 (stereo not shown) [YU172164] | 56 | – | – | 11.14 | 47.38 | 36.24 | – |
| Cc1nc(NC(=O)c2cc3ccccc3o2)sc1C [YU147750] | 86.4 | −2.53 | −6.59 | – | – | – | – |
| Oc1cc(O)c2c(c1)O[C@H](c1cc(O)c(O)c(O)c1)[C@H](O)C2 [YU155087, EPIGALLOCATECHIN, reference compound] | 55.5 | – | – | 19.74 | 44.50 | 24.76 | – |
| c1cc2c(cc1CNc1ccc(N3CCCC3)cc1)OCO2 [YU149834] | 48.1 | 28.52 | 27.95 | – | – | – | – |
| Cc1cccc(NC(c2cccnc2)c2ccc3cccnc3c2O)n1 (stereo not shown) [YU172179] | 58.1 | – | – | 10.43 | 63.74 | 53.31 | – |
| O=c1c(O[C@@H]2O[C@H](CO)[C@@H](O)[C@H](O)[C@H]2O)c(-c2ccc(O)c(O)c2)oc2cc(O)cc(O)c12 [YU221011, Isoquercitrin, reference compound] | 45.1 | – | – | 36.99 | 52.16 | 15.17 | – |
| COCc1cc(O)c(O)c(O)c1-c1c(COC)cc(O)c(O)c1O [YU154887, 2,2,3,3,4,4- HEXAHYDROXY-1,1- BIPHENYL-6,6- DIMETHANOL DIMETHYL ETHER, reference compound] | 103 | – | – | 57.15 | 99.57 | 42.41 | – |
| COc1ccc(CNn2c(C)nnc2S)cc1 [YU146438] | 36.9 | – | – | 42.15 | 50.33 | 8.17 | – |
| O=C(O[C@@H]1Cc2c(O)cc(O)cc2O[C@@H]1c1cc(O)c(O)c(O)c1)c1cc(O)c(O)c(O)c1 [YU040338, Epigallocatechin gallate, reference compound] | 100 | – | – | 15.48 | 96.04 | 80.56 | – |
| C=CCn1c(Cc2nc3ccccc3[nH]2)n[nH]c1=S [YU147658] | 32.8 | – | – | 28.18 | 27.63 | −0.55 | – |
| O=C(NNC(=S)NCC1CCCO1)c1ccccn1 (stereo not shown) [YU148374] | 84.8 | – | – | 54.50 | 77.28 | 22.77 | – |
| O=C(OC[C@H]1O[C@@H](OC(=O)c2cc(O)c(O)c(OC(=O)c3cc(O)c(O)c(O)c3)c2)[C@H](OC(=O)c2cc(O)c(O)c(OC(=O)c3cc(O)c(O)c(O)c3)c2)[C@@H](OC(=O)c2cc(O)c(O)c(OC(=O)c3cc(O)c(O)c(O)c3)c2)[C@@H]1OC(=O)c1cc(O)c(O)c(OC(=O)c2cc(O)c(O)c(O)c2)c1)c1cc(O)c(O)c(OC(=O)c2cc(O)c(O)c(O)c2)c1 (stereo in doubt) [YU153507, TANNIC ACID, reference compound] | – | 105.15 | 99.80 | – | – | – | – |
